# Measurements published in US9249145B2, “Heterocyclic derivatives of pyrazol-4-yl-pyrrolo[2,3-d]pyrimidines as janus kinase inhibitors” (Incyte Holdings Corporation, priority 2009, dated 2016).
# Counter-ions that a name gives are not always drawn. Like-named read-outs stand apart in the source and are kept apart here.
# How the values were obtained:
# [1] = target: T1, Jak2 (a.a. 828-1132) (Homo sapiens, UniProt O60674); assay: In vitro JAK kinase assay (HTRF, phosphorylation of biotinylated peptide), JAK2; format: biochemical
# T1 construct: Jak2 (a.a. 828-1132); His tag (N); made in house; host or cells: insect cells (baculovirus)
# T1 sequence (O60674 828-1132): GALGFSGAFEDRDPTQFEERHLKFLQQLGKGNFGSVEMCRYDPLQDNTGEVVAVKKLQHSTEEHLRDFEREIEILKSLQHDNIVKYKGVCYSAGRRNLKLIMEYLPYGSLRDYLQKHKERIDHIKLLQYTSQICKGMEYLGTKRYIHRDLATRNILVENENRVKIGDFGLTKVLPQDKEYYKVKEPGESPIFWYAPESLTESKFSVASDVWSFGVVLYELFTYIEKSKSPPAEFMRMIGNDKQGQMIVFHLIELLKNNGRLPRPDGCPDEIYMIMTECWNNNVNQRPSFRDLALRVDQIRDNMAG
# Description: (§1) Compounds herein were tested for inhibitory activity of JAK targets according to the following in vitro assay described in Park et al., Analytical Biochemistry 1999, 269, 94-104. The catalytic domains of human JAK1 (a.a. 837-1142), Jak2 (a.a. 828-1132) and Jak3 (a.a. 781-1124) with an N-terminal His tag were expressed using baculovirus in insect cells and purified. The catalytic activity of JAK1, JAK2 or JAK3 was assayed by measuring the phosphorylation of a biotinylated peptide. The phosphorylated peptide was detected by homogenous time resolved fluorescence (HTRF). IC50s of compounds were measured for each kinase in the 40 microL reactions that contain the enzyme, ATP and 500 nM peptide in 50 mM Tris (pH 7.8) buffer with 100 mM NaCl, 5 mM DTT, and 0.1 mg/mL (0.01%) BSA. The ATP concentration in the reactions was 90 μM for Jak1, 30 μM for Jak2 and 3 μM for Jak3 for Km conditions. For the 1 mM IC50 measurements, ATP concentration in the reactions was 1 mM. Reactions were carried out at room temperature for 1 hr and then stopped with 20 μL 45 mM EDTA, 300 nM SA-APC, 6 nM Eu-Py20 in assay buffer (Perkin Elmer, Boston, Mass.). Binding to the Europium labeled antibody took place for 40 minutes and HTRF signal was measured on a Fusion plate reader (Perkin Elmer, Boston, Mass.). See Tables 1, 2, 3, and 4 for data related to compounds of the invention.
# [2] = target: T2, human JAK1 (a.a. 837-1142) (Homo sapiens, UniProt P23458); assay: In vitro JAK kinase assay (HTRF, phosphorylation of biotinylated peptide), JAK1; format: biochemical
# T2 construct: The catalytic domains of human JAK1 (a.a. 837-1142); His tag (N); made in house; host or cells: insect cells (baculovirus)
# T2 sequence (P23458 849-1154): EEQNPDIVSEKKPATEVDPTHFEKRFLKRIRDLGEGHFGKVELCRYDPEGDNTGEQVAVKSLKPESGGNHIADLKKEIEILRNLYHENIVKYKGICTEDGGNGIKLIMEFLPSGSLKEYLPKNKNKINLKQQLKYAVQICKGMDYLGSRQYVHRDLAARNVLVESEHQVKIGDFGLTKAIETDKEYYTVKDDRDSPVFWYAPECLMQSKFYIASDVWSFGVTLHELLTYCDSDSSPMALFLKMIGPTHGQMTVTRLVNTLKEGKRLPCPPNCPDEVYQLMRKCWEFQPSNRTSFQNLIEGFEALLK
# Description: as §1
# [3] = 1 mM ATP, Examples 12-91, read-out: JAK2 IC50 (nM) @ 1 mM ATP
# [4] = 1 mM ATP, Examples 12-91, read-out: JAK1 IC50 (nM) @ 1 mM ATP
# [5] = 1 mM ATP, Examples 92-162, read-out: JAK2 IC50 (nM) @ 1 mM ATP
# [6] = 1 mM ATP, Examples 92-162, read-out: JAK1 IC50 (nM) @ 1 mM ATP
smiles,measurement,setting,value
"N#CCC(CN1CCN(C(=O)c2cc(F)cc(F)c2)CC1)n1ccc(-c2ncnc3[nH]ccc23)c1 (centres unmarked) [Example 81, 3-(3-(7H-pyrrolo[2,3-d]pyrimidin-4-yl)-1H-pyrrol-1-yl)-4-(4-(3,5-difluorobenzoyl)piperazin-1-yl)butanenitrile]",IC50,[1]; [3],50 to 100 nM
same,IC50,[2]; [4],< 10 nM
"CCC(CN1CCN(S(=O)(=O)c2ccc(F)cc2)CC1)n1cc(-c2ncnc3[nH]ccc23)cn1 (centres unmarked) [Example 137, 4-(1-(1-(4-(4-fluorophenylsulfonyl)piperazin-1-yl)butan-2-yl)-1H-pyrazol-4-yl)-7H-pyrrolo[2,3-d]pyrimidine]",IC50,[1]; [5],50 to 100 nM
same,IC50,[2]; [6],< 20 nM
"N#CCC(CN1CCN(C(=O)c2cc(F)cc(C#N)c2)CC1)n1ccc(-c2ncnc3[nH]ccc23)c1 (centres unmarked) [Example 86, 3-(4-(2-(3-(7H-pyrrolo[2,3-d]pyrimidin-4-yl)-1H-pyrrol-1-yl)-3-cyanopropyl)piperazine-1-carbonyl)-5-fluorobenzonitrile trifluoroacetate salt]",IC50,[1]; [3],> 100 nM
same,IC50,[2]; [4],10 to 50 nM
"CCC(CN1CCN(S(=O)(=O)c2cc(F)ccc2F)CC1)n1cc(-c2ncnc3[nH]ccc23)cn1 (centres unmarked) [Example 141, 4-(1-(1-(4-(2,5-difluorophenylsulfonyl)piperazin-1-yl)butan-2-yl)-1H-pyrazol-4-yl)-7H-pyrrolo[2,3-d]pyrimidine]",IC50,[1]; [5],50 to 100 nM
same,IC50,[2]; [6],< 20 nM
"N#CCC(CN1CCN(C(=O)c2ccc(C#N)cc2F)CC1CO)n1cc(-c2ncnc3[nH]ccc23)cn1 (single isomer, unassigned) [156—peak 1, 4-{[4-{3-cyano-2-[4-(7H-pyrrolo[2,3-d]pyrimidin-4-yl)-1H-pyrazol-1-yl]propyl}-3-(hydroxymethyl)piperazin-1-yl]carbonyl}-3-fluorobenzonitrile trifluoroacetate Salt]",IC50,[1]; [5],> 100 nM
same,IC50,[2]; [6],< 20 nM
"Cc1cc(F)ccc1NC(=O)N1CCN(CC(CC#N)n2cc(-c3ncnc4[nH]ccc34)cn2)CC1 (centres unmarked) [Example 23, 4-(2-(4-(7H-pyrrolo[2,3-d]pyrimidin-4-yl)-1H-pyrazol-1-yl)-3-cyanopropyl)-N-(4-fluoro-2-methylphenyl)piperazine-1-carboxamide]",IC50,[1]; [3],> 100 nM
same,IC50,[2]; [4],10 to 50 nM
"N#CCC(CN1CCN(C(=O)c2ccc(C#N)cc2F)CC1CO)n1cc(-c2ncnc3[nH]ccc23)cn1 (single isomer, unassigned) [156—peak 4, 4-{[4-{3-cyano-2-[4-(7H-pyrrolo[2,3-d]pyrimidin-4-yl)-1H-pyrazol-1-yl]propyl}-3-(hydroxymethyl)piperazin-1-yl]carbonyl}-3-fluorobenzonitrile trifluoroacetate Salt]",IC50,[1]; [5],> 100 nM
same,IC50,[2]; [6],> 100 nM
"N#CCC(CN1CCN(C(=O)c2ccc(C#N)cc2F)CC1C(F)F)n1cc(-c2ncnc3[nH]ccc23)cn1 (single isomer, unassigned) [Example 159—peak 3, 4-{[4-{3-cyano-2-[4-(7H-pyrrolo[2,3-d]pyrimidin-4-yl)-1H-pyrazol-1-yl]propyl}-3-(difluoromethyl)piperazin-1-yl]carbonyl}-3-fluorobenzonitrile]",IC50,[1]; [5],20 to 50 nM
same,IC50,[2]; [6],< 20 nM
"N#CCC(CN1CCN(C(=O)c2c(F)cc(C#N)cc2F)CC1)n1cc(-c2ncnc3[nH]ccc23)cn1 (centres unmarked) [Example 15, 4-[(4-{3-cyano-2-[4-(7H-pyrrolo[2,3-d]pyrimidin-4-yl)-1H-pyrazol-1-yl]propyl}piperazin-1-yl)carbonyl]-3,5-difluorobenzonitrile phosphate Salt]",IC50,[1]; [3],50 to 100 nM
same,IC50,[2]; [4],< 10 nM
"COc1ccc(C(=O)N2CCN(CC(CC#N)n3cc(-c4ncnc5[nH]ccc45)cn3)CC2)cc1Cl (centres unmarked) [Example 44, 3-(4-(7H-pyrrolo[2,3-d]pyrimidin-4-yl)-1H-pyrazol-1-yl)-4-(4-(3-chloro-4-methoxybenzoyl)piperazin-1-yl)butanenitrile trifluoroacetate salt]",IC50,[1]; [3],10 to 50 nM
same,IC50,[2]; [4],< 10 nM
"N#CCC(CN1CCN(C(=O)c2ccc(C#N)cn2)CC1)n1cc(-c2ncnc3[nH]ccc23)cn1 (centres unmarked) [Example 20, 6-[(4-{3-cyano-2-[4-(7H-pyrrolo[2,3-d]pyrimidin-4-yl)-1H-pyrazol-1-yl]propyl}piperazin-1-yl)carbonyl]nicotinonitrile]",IC50,[1]; [3],> 100 nM
same,IC50,[2]; [4],10 to 50 nM
"N#CCC(CN1CCN(C(=O)c2ccc(F)c(OC(F)(F)F)c2)CC1)n1ccc(-c2ncnc3[nH]ccc23)c1 (centres unmarked) [Example 85, 3-(3-(7H-pyrrolo[2,3-d]pyrimidin-4-yl)-1H-pyrrol-1-yl)-4-(4-(4-fluoro-3-(trifluoromethoxy)benzoyl)piperazin-1-yl)butanenitrile]",IC50,[1]; [3],> 100 nM
same,IC50,[2]; [4],10 to 50 nM
"N#CCC(CN1CCN(C(=O)c2ccc(F)cc2)CC1)n1cc(-c2ncnc3[nH]ccc23)cn1 (centres unmarked) [Example 36, 3-(4-(7H-pyrrolo[2,3-d]pyrimidin-4-yl)-1H-pyrazol-1-yl)-4-(4-(4-fluorobenzoyl)piperazin-1-yl)butanenitrile]",IC50,[1]; [3],10 to 50 nM
same,IC50,[2]; [4],< 10 nM
"COc1ccc(Br)cc1S(=O)(=O)N1CCCN(CC(CC#N)n2cc(-c3ncnc4[nH]ccc34)cn2)CC1 (centres unmarked) [Example 114, 4-{4-[(5-bromo-2-methoxyphenyl)sulfonyl]-1,4-diazepan-1-yl}-3-[4-(7H-pyrrolo[2,3-d]pyrimidin-4-yl)-1H-pyrazol-1-yl]butanenitrile]",IC50,[1]; [5],50 to 100 nM
same,IC50,[2]; [6],20 to 50 nM
"CC(CN1CCN(S(=O)(=O)c2ccn(C)n2)CC1)n1cc(-c2ncnc3[nH]ccc23)cn1 (centres unmarked) [Example 11, 4-[1-(1-methyl-2-{4-[(1-methyl-1H-pyrazol-3-yl)sulfonyl]piperazin-1-yl}ethyl)-1H-pyrazol-4-yl]-7H-pyrrolo[2,3-d]pyrimidine bis(phosphate) Salt]",IC50,"[1]; 1 mM ATP, Examples 1-11, read-out: IC50 (nM) @ 1 mM ATP JAK2",> 20 nM
same,IC50,"[2]; 1 mM ATP, Examples 1-11, read-out: IC50 (nM) @ 1 mM ATP JAK1",< 10 nM
"Cc1cc(F)ccc1C(=O)N1CCN(CC(CC#N)n2cc(-c3ncnc4[nH]ccc34)cn2)CC1 (centres unmarked) [Example 47, 3-(4-(7H-pyrrolo[2,3-d]pyrimidin-4-yl)-1H-pyrazol-1-yl)-4-(4-(4-fluoro-2-methylbenzoyl)piperazin-1-yl)butanenitrile]",IC50,[1]; [3],10 to 50 nM
same,IC50,[2]; [4],< 10 nM
"N#CCC(CN1CCN(C(=O)c2c(F)cc(F)cc2F)CC1)n1cc(-c2ncnc3[nH]ccc23)cn1 (centres unmarked) [Example 29, 3-(4-(7H-pyrrolo[2,3-d]pyrimidin-4-yl)-1H-pyrazol-1-yl)-4-(4-(2,4,6-trifluorobenzoyl)piperazin-1-yl)butanenitrile]",IC50,[1]; [3],< 10 nM
same,IC50,[2]; [4],< 10 nM
"N#CCC(CN1CCCN(C(=O)c2ccc(O)cc2F)CC1)n1cc(-c2ncnc3[nH]ccc23)cn1 (centres unmarked) [Example 97, 4-[4-(2-fluoro-4-hydroxybenzoyl)-1,4-diazepan-1-yl]-3-[4-(7H-pyrrolo[2,3-d]pyrimidin-4-yl)-1H-pyrazol-1-yl]butanenitrile bis(trifluoroacetate)]",IC50,[1]; [5],> 100 nM
same,IC50,[2]; [6],20 to 50 nM
"CCC(CN1CCN(S(=O)(=O)c2ccccc2Cl)CC1)n1cc(-c2ncnc3[nH]ccc23)cn1 (centres unmarked) [Example 132, 4-(1-(1-(4-(2-chlorophenylsulfonyl)piperazin-1-yl)butan-2-yl)-1H-pyrazol-4-yl)-7H-pyrrolo[2,3-d]pyrimidine]",IC50,[1]; [5],20 to 50 nM
same,IC50,[2]; [6],< 20 nM
"N#CCC(CN1CCN(C(=O)c2c(O)cccc2F)CC1)n1cc(-c2ncnc3[nH]ccc23)cn1 (centres unmarked) [Example 35, 3-(4-(7H-pyrrolo[2,3-d]pyrimidin-4-yl)-1H-pyrazol-1-yl)-4-(4-(2-fluoro-6-hydroxybenzoyl)piperazin-1-yl)butanenitrile]",IC50,[1]; [3],< 10 nM
same,IC50,[2]; [4],< 10 nM
"N#CCC(CN1CCN(C(=O)c2ccc(C#N)cc2F)CC1CF)n1cc(-c2ncnc3[nH]ccc23)cn1 (single isomer, unassigned) [Example 158, 4-[(4-{3-cyano-2-[4-(7H-pyrrolo[2,3-d]pyrimidin-4-yl)-1H-pyrazol-1-yl]propyl}-3-fluoromethylpiperazin-1-yl)carbonyl]-3-fluorobenzonitrile]",IC50,[1]; [5],> 100 nM
same,IC50,[2]; [6],< 20 nM
"N#CCC(CC1CCN(C(=O)c2ccc(F)cc2F)CC1)n1cc(-c2ncnc3[nH]ccc23)cn1 (centres unmarked) [Example 6, 4-[1-(2,4-difluorobenzoyl)piperidin-4-yl]-3-[4-(7H-pyrrolo[2,3-d]pyrimidin-4-yl)-1H-pyrazol-1-yl]butanenitrile]",IC50,"[1]; Km ATP (30 μM for Jak2), Examples 1-11, read-out: IC50 (nM) @ Km ATP JAK2",< 10 nM
same,IC50,"[2]; Km ATP (90 μM for Jak1), Examples 1-11, read-out: IC50 (nM) @ Km ATP JAK1",< 10 nM
